Reference: patent publication US10457639B2, “Fluorescent regulators of RASSF1A expression and human cancer cell proliferation” (GEORGETOWN UNIVERSITY, priority 2008, dated 2019)
Read-outs that look alike come from different tables or passages of the source.

Columns and labels:
PC3 cells = assay: Cell growth assay, trypan blue dye exclusion count; type: cell-based
Description: Cell Line and Cell Growth Assay. Human prostate cancer cell line PC-3 was procured from the American Type Cell Culture Collection (Manassas, Va.). Cells were grown in IMEM without phenol red (Invitrogen, Carlsbad, Calif.) with 10% fetal bovine serum, 2 mM glutamine, 100 U/mL penicillin G sodium, and 100 μg/mL streptomycin sulfate (Sigma, St. Louis, Mo.) in the presence of 5% CO2 at 37° C. For the cell growth experiment, PC-3 cells were seeded in 6-well plates in triplicate with an initial density of 2×10^3 cells per well. Twenty-four hours after seeding, the attached cells were treated with vehicle (DMSO) or 1, 5, 15, 30 and 60 μM compound. After another twenty-four hours, the cells were washed with 1×PBS, trypsinized and re-suspended in complete growth medium. Trypan blue (0.4%) was added to the cell suspension and both live and dead cells were counted using a hemocytometer.
Compounds 6-10 were screened for growth inhibition in PC-3 human prostate cancer cells using previously reported methods (Table 1; Sinha et al. The Prostate. 2006, 66, 1257-1265). […] This was unexpected, since the methyl moiety of mahanine is in the 3-position. Compound 9, with its GI50 value near that of the compound 6 series (compounds 6, 6a, 8) and a deprotected hydroxyl group in the 2-position, implies that whatever hindrance is imposed by a methyl in the 3-position can be partially overcome if steric bulk at the 2-position is reduced. Indeed, looking at the structure of mahanine, the restraint of the ether cycle may provide enough reduction of apparent bulk at the 2-position to moderate its methyl in the 3-position. Additionally, the ether ring system puts the equivalent of a methyl group in the 1-position, which could also be aiding in the low μM activity of mahanine, if the relatively lower values for the compound 6 series are any indication. Moreover, analyzing the structure of compound 10 based on the same criteria, the double-bonded carbon of the ether cycle in the 3-position along with bulk off the 2-position might explain its lesser growth inhibition when compared to mahanine, while the methyl in the 1-position still gives it better activity than compounds 7 and 7a.

RASSF1A = assay: RT-PCR of RASSF1A mRNA in treated PC-3 cells; type: cell-based, human
Description: (§1) Representative photograph of an experiment repeated thrice. PC-3 cells were treated 24 hours with either 15 μM for compounds 6, 7, 7a, 8, 9, 10 or 5 μM for compound KED-4-69 (compound 6a) before RNA extraction and RT-PCR amplification.
(§2) Reverse Transcriptase-polymerase Chain Reaction (RT-PCR). From PC-3 cells incubated 24 hours with either 15 μM of compound 6, 7, 7a, 8, 9, 10 or 5 μM of KED-4-69 (compound 6a), RNA was extracted with TRIzol solution (Invitrogen, Carlsbad, Calif.) and genes of interest were amplified using 500 ng of total RNA reverse-transcribed to cDNA using a Superscript II kit (Invitrogen) with random hexamers. Human-specific primers were designed using the Primer Quest program and purchased from Integrated DNA Technologies, Inc. (Coralville, Iowa). Their sequences and product band sizes are: cyclin D1 forward primer 5′-[…]-3′ (SEQ ID NO:1), cyclin D1 reverse primer 5′-[…]-3′ (SEQ ID NO:2) (475 bp) and GAPDH forward primer: 5′-CCA […]-3′ (SEQ ID NO:3), GAPDH reverse primer: 5′-TCTAGACGGCAG GTCAGGTCCACC-3′ (SEQ ID NO:4) (598 bp). PCRs were initiated at 94° C. for 2 min, followed by 28 cycles of 94° C. for 1 min, 1 min annealing temperature, 72° C. for 1 min, and final extension at 72° C. for 5 min. The annealing temperature for cyclin D1 and GAPDH was 60° C. Primers and PCR conditions for RASSF1A are used as described by Rong et al. (Oncogene. 2004, 23, 8216-8230). After amplification, PCR products were separated on 1.5% agarose gels and visualized by ethidium bromide fluorescence using the Fuji LAS-1000 Imager. Images were captured and imported to Adobe Photoshop. Band intensities were quantified by using ImageJ software (NIH, Bethesda, Md.).
(§3) It has been reported that mRNA levels of RASSF1A correlate to its protein expression levels (Rong et al. Oncogene, 2004, 23: 8216-8230). To investigate the effects of the synthetic compounds on RASSF1A and cyclin D1 expression, levels of the respective mRNAs in treated cells compared to control were analyzed (FIG. 3). […] Because overexpression of cyclin D1 is associated with tumorigenicity and proliferation in a variety of tumors, including prostate cancers, this downregulation provides a cancer treatment method (Chen, Y. et al. Oncogene. 1998, 16, 1913-1920; Musgrove, E. A. et al. Proc. Natl. Acad. Sci. USA. 1994, 91, 8022-8026).

cyclin D1 = assay: RT-PCR of cyclin D1 mRNA in treated PC-3 cells; type: cell-based, human
Description: as §1, §2, §3

[1] = system: DNA methyltransferase (DNMT); assay: DNA methyltransferase activity assay (EpiQuik kit, nuclear extracts of treated PC-3 cells); type: cell-based, human; settings: 72 hours
Description: Black bars: PC-3 cells were treated 72 hours with either mahanine or compound 6a at 5 μM or compound 6, 7, 7a, 8, or 9 at 15 μM and then assayed for DNMT activity using the DNMT activity kit from Epigentek. Data are mean of three independent experiments ±SEM. Grey bars: Densitometry from RT-PCR blot where the amount of RASSF1A mRNA re-expressed by mahanine treatment is normalized to 100%.
DNA methyltransferase activity assay. PC-3 cells were plated in complete growth media, treated with either mahanine or compound 6a at 2 μM or compound 6, 7, 7a, 8, 9, 10 at 15 μM for 3 days and then harvested. Nuclear extracts were prepared according to manufacturer's protocol (Nuclear extraction kit, Epigentek). DNMT activity was measured using an EpiQuik DNA methyltransferase activity assay kit (Epigentek). Results were expressed as percent DNMT activity compared to the DMSO control as 100%.
The levels of DNMT activity in treated versus untreated prostate cancer cells were measured using a DNMT assay kit from Epigentek. […] These reduced DNMT activities correlate with the pattern of RASSF1A induction described above (FIG. 7, grey bars). The data imply that inhibition of DNMT prevents hypermethylation of the RASSF1A promoter region and consequently restores RASSF1A.

PC-3 cells = assay: BrdU labeling, DNA synthesis (Cell Proliferation ELISA BrdU); type: cell-based, human; settings: 5 μM compound, 24 hours
Description: PC-3 cells were plated in 96-well plates and treated with 5 μM of compound. After 24 hours, the cells were assayed for BrdU labeling using the Cell Proliferation ELISA BrdU kit from Roche; background BrdU incorporation levels (absent anti-BrdU-peroxidase solution) were subtracted and values were normalized to those of control untreated cells.
BrdU Labeling. For the BrdU experiment, PC-3 cells were seeded in 96-well plates at a density of 2×10^3 cells/well, treated with 5 μM of compound for 24 hr and assayed BrdU using the Cell Proliferation ELISA BrdU (chemiluminescence) (Roche Diagnostics, IN) kit according to the manufacturer's protocol. Briefly, 10 μL of 100 μM BrdU labeling solution was added to the cultured cells and were incubated for 1 hr at 37° C., the labeling solution was removed and the FixDenat solution provided with the kit was added for 30 min and incubated at room temperature. Cells were then incubated with anti-BrdU conjugated to peroxidase (1:1500) for 60 min. Finally, the plates were washed and 100 μL of substrate solution was added to each well, and the light emission was measured using a microplate luminometer (Harta Instruments, Inc., Gaithersburg, Md.).
To assess the levels of DNA synthesis within cells treated with mahanine compared to those treated with compounds 6-10, cultured cells were treated according to standard procedure with 5-bromo-2-deoxy-uridine (BrdU) after 24 hours of treatment (FIG. 2).

[2] = Homo sapiens, PC-3, concentration for 50% growth inhibition in PC3 cells, 24 hours of treatment, mean ± SEM of three observations, read-out: GI50
[3] = mahanine, concentration not given

| Compound | GI50 (PC3 cells; [2]) [µM] | RASSF1A mRNA level versus control (RASSF1A; 15 μM, 24 hours) | cyclin D1 mRNA level versus control (cyclin D1; 15 μM, 24 hours) | DNA synthetic ability (BrdU labeling) (PC-3 cells) | DNMT activity versus DMSO control ([1]; 15 μM) | further results |
| --- | --- | --- | --- | --- | --- | --- |
| COc1ccc2c(c1)[nH]c1cc(OS(=O)(=O)c3cccc4c(N(C)C)cccc34)c(C)cc12 [Compound 7a, 7-Methoxy-3-methyl-9H-carbazol-2-yl 5-(dimethylamino)naphthalene-1-sulfonate] | 22.9 ± 4.5 | no change in expression levels from control | no change in expression levels from control | – | – | – |
| COc1ccc2c(c1)[nH]c1cc(OCc3ccccc3)c(C)cc12 [Compound 7, 2-(benzyloxy)-7-methoxy-3-methyl-9H-carbazole] | 48.9 ± 1.1 | no change in expression levels from control | no change in expression levels from control | – | – | – |
| mahanine [reference compound] | – | – | – | decrease in DNA synthetic ability | – | DNMT activity versus DMSO control ([1]; 5 μM (FIG. 7 legend; method says 2 μM)): Significant inhibition of DNMT activity; doses at which cytotoxic (PC3 cells; PC-3 cells): above 5 μM; GI50 (PC3 cells; concentration for 50% growth inhibition in PC3 cells, 24 hours of treatment, mean ± SEM of three observations, read-out: GI50): 2.5 ± 0.18 µM; RASSF1A mRNA level versus control (RASSF1A; [3]): significant increase in RASSF1A; cyclin D1 mRNA level versus control (cyclin D1; [3]): corresponding decrease in cyclin D1 |
| COc1ccc2c(c1)[nH]c1c(C)c(OCc3ccccc3)ccc12 [Compound 6, 2-(Benzyloxy)-7-methoxy-1-methyl-9H-carbazole] | 17.6 ± 2.7 | significant increase in RASSF1A | corresponding decrease in cyclin D1 | decrease in DNA synthetic ability | Significant inhibition of DNMT activity | – |
| COc1ccc2c(c1)[nH]c1cc(O)c(C)cc12 [Compound 9, 7-Methoxy-3-methyl-9H-carbazol-2-ol] | 15.3 ± 2.8 | – | – | decrease in DNA synthetic ability | slight decrease in DNMT activity | – |
| COc1ccc2c(c1)[nH]c1c(C)c(O)ccc12 [Compound 8, 7-Methoxy-1-methyl-9H-carbazol-2-ol] | – | – | – | no change in the DNA synthetic ability | slight decrease in DNMT activity | GI50 (PC3 cells; Homo sapiens, PC-3, 24 h): 18.7 ± 1.8 µM |
